From patent US20050107400A1, “Use of pyrazolopyridines as therapeutic compounds” (priority 2001, published 2005)

Tested on: HSV-1
Assay: HSV-1 replication in infected Vero 76 cells, DNA hybridization capture assay
Format: cell-based, herpes simplex virus 1
Conditions: Human alphaherpesvirus 1; HSV-1 in Vero 76 cells, MOI=0.001, 40-48 hours at 37° C.; read-out: IC50
Description: a) Tissue Culture and HSV Infection.
Vero 76 cells were maintained in MEM with Earle's salts, L-glutamine, 8% FBS (Hyclone, A-1111-L) and 100 units/mL Penicillin-100 μg/mL Streptomycin. For assay conditions, FBS was reduced to 2%. Cells are seeded into 96-well tissue culture plates at a density of 5×10^4 cells/well after being incubated for 45 min at 37° C. in the presence of HSV-1 or HSV-2 (MOI=0.001). Test compounds are added to the wells and the plates are incubated at 37° C. for 40-48 hours. Cell lysates are prepared as follows: media was removed and replaced with 150 μL/well 0.2 N NaOH with 1% Igepal CA 630 or NP-40. Plates were incubated up to 14 days at room temperature in a humidified chamber to prevent evaporation.
(b) Preparation of Detection DNA.
For the detection probe, a gel-purified, digoxigenin-labeled, […] PCR fragment of the HSV UL-15 sequence was utilized. PCR conditions included 0.5 μM primers, 180 μM dTTP, 20 μM dUTP-digoxigenin (Boehringer Mannheim 1558706), 200 μM each of dATP, dCTP, and dGTP, 1×PCR Buffer II (Perkin Elmer), 2.5 mM MgCl2, 0.025 units/μL of AmpliTaq Gold polymerase (Perkin Elmer), and 5 ng of gel-purified HSV DNA per 100 μL Extension conditions were 10 min at 95° C., followed by 30 cycles of 95° C. for 1 min, 55° C. for 30 sec, and 72° C. for 2 min. The amplification was completed with a 10-min incubation at 72° C. Primers were selected to amplify a 728 bp probe spanning a section of the HSV1 UL15 open reading frame (nucleotides 249-977). Single-stranded transcripts were purified with Promega M13 Wizard kits. The final product was mixed 1:1 with a mixture of 6 M GuSCN, 100 mM EDTA and 200 μg/mL herring sperm DNA and stored at 4° C.
(c) Preparation of Capture Plates.
The capture DNA plasmid (HSV UL13 region in pUC) was linearized by cutting with Xba I, denatured for 15 min at 95° C. and diluted immediately into Reacti-Bind DNA Coating Solution (Pierce, 17250, diluted 1:1 with TE buffer, pH 8) at 1 ng/μL. 75 μL/well were added to Corning (#3922 or 9690) white 96-well plates and incubated at room temperature for at least 4 hrs before washing twice with 300 μL/well 0.2×SSC/0.05% Tween-20 (SSC/T buffer). The plates were then incubated overnight at room temperature with 150 μL/well 0.2 N NaOH, 1% IGEPAL and 10 μg/mL herring sperm DNA.
Twenty-seven (27) μL of cell lysate was combined with 45 μL of hybridization solution (final concentration: 3M GuSCN, 50 mM EDTA, 100 μg/ml salmon sperm DNA, 5×Denhardt's solution, 0.25×APE, and 5 ng of the digoxigenin-labeled detection probe). APE is 1.5 M NH4-acetate, 0.15 M NH4H2 phosphate, and 5 mM EDTA adjusted to pH 6.0. Mineral oil (50 μL) was added to prevent evaporation. The hybridization plates were incubated at 95° C. for 10 minutes to denature the DNA, then incubated at 42° C. overnight. The wells were washed 6× with 300 μL/well SSC/T buffer then incubated with 75 μL/well anti-digoxigenin-HRP-conjugated antibody (Boehringer Mannheim 1207733, 1:5000 in TE) for 30 min at room temperature. The wells were washed 6× with 300 μL/well with PBS/0.05% Tween-20 before 75 μL/well SuperSignal LBA substrate (Pierce) was added. The plates were incubated at room temperature for 30 minutes and chemiluminescence was measured in a Wallac Victor reader.
The following results were obtained for HSV-1.

IC50 [nM] | SMILES
2500 | OCc1ccc2c(-c3ccnc(NC4CCCC4)n3)c(-c3ccc(F)cc3)nn2c1 [Example 33, [3-[2-(Cyclopentylamino)-4-pyrimidinyl]-2-(4-fluorophenyl)pyrazolo-[1,5-a]pyridin-6-yl]methanol]
6000 | CCCCCCCCc1cccc2c(-c3ccnc(NCCCC)n3)c(-c3ccc(F)cc3)nn12 [Example 86, N-Butyl-4-[2-(4-fluorophenyl)-7-octylpyrazolo[1,5-a]pyridin-3-yl]-2-pyrimidinamine]
3000 | CCc1cccc2c(-c3ccnc(NC4CC4)n3)c(-c3ccc(F)cc3)nn12 [Example 87, N-Cyclopropyl-4-[7-ethyl-2-(4-fluorophenyl)pyrazolo[1,5-a]pyridin-3-yl]-2-pyrimidinamine]
15000 | CN(C)C(=O)c1cccc2c(-c3ccnc(NC4CC4)n3)c(-c3ccc(F)cc3)nn12 [Example 88, Dimethyl 2-(4-fluorophenyl)-3-(4-(2-cyclopropylamino)pyrimidinyl)-7-pyrazolo[1,5-a]pyridinylcarboxamide]
3600 | Fc1ccc(-c2nn3ccc(N4CCOCC4)cc3c2-c2ccnc(NC3CCCC3)n2)cc1 [Example 89, N-Cyclopentyl-4-[2-(4-fluorophenyl)-5-morpholin-4-ylpyrazolo[1,5-a]pyridin-3-yl]pyrimidin-2-amine]
1900 | CN(C)CCCNc1nccc(-c2c(-c3ccc(F)cc3)nn3cc(C(F)(F)F)ccc23)n1 [Example 90, N^1-{4-[2-(4-Fluorophenyl)-6-trifluoromethylpyrazolo[1,5-a]pyridin-3-yl]pyrimidin-2-yl}-N^3,N^3-dimethylpropane-1,3-diamine]
20000 | COc1ccc(-c2nn3ccccc3c2-c2ccnc(NC3CCCC3)n2)c(OC)c1 [Example 92, N-Cyclopentyl-4-[2-(2,4-dimethoxyphenyl)pyrazolo[1,5-a]pyridin-3-yl]pyrimidin-2-amine]
2600 | Fc1ccc(-c2nn3ccc(Cl)cc3c2-c2nc(NC3CCCC3)ncc2Br)cc1 [Example 93, 5-Bromo-4-[5-chloro-2-(4-fluorophenyl)pyrazolo[1,5-a]pyridin-3-yl]-N-cyclopentyl pyrimidin-2-amine]
27000 | COc1ccc(-c2nn3cc(C(F)(F)F)ccc3c2-c2ccnc(NC3CC3)n2)cc1 [Example 95, N-Cyclopropyl-4-[2-(4-methoxyphenyl)-6-(trifluoromethyl)pyrazolo[1,5-a]pyridin-3-yl]pyrimidin-2-amine]
5500 | CCOC(OCC)(OCC)c1ccc2c(-c3ccnc(NC4CC4)n3)c(-c3ccc(OC)cc3)nn2c1 [Example 96, N-Cyclopropyl-4-[2-(4-methoxyphenyl)-6-(triethoxymethyl)pyrazolo[1,5-a]pyridin-3-yl]pyrimidin-2-amine]
16000 | CCOC(=O)c1ccc2c(-c3ccnc(NC4CC4)n3)c(-c3ccc(OC)cc3)nn2c1 [Example 97, Ethyl 3-[2-(cyclopropylamino)pyrimidin-4-yl]-2-(4-methoxyphenyl)-pyrazolo[1,5-a]pyridine-6-carboxylate]
1100 | COCCNC(=O)c1ccc2c(-c3ccnc(NC4CC4)n3)c(-c3ccc(OC)cc3)nn2c1 [Example 98, 3-[2-(Cyclopropylamino)pyrimidin-4-yl]-N-(2-methoxyethyl)-2-(4-methoxyphenyl)pyrazolo[1,5-a]pyridine-6-carboxamide]
1000 | CSc1cc(Cl)cc2c(-c3ccnc(NC4CCCC4)n3)c(-c3cccc(Cl)c3)nn12 [Example 229, 4-[5-Chloro-2-(3-chlorophenyl)-7-(methylsulfanyl)pyrazolo[1,5-a]pyridin-3-yl]-N-cyclopentyl-2-pyrimidinamine]
1300 | CSc1cccc2c(-c3cc(NC4CCCC4)ncn3)c(-c3ccc(F)cc3)nn12 [Example 230, N-cyclopentyl-6-[2-(4-fluorophenyl)-7-(methylthio)pyrazolo[1,5-a]pyridin-3-yl]pyrimidin-4-amine]
900 | CC(C)Sc1cc(N2CCOCC2)cc2c(-c3ccnc(NC4CCCC4)n3)c(-c3ccc(F)cc3)nn12 [Example 232, N-Cyclopentyl-4-[2-(4-fluorophenyl)-7-(isopropylthio)-5-morpholin-4-ylpyrazolo[1,5-a]pyridin-3-yl]pyrimidin-2-amine]

SMILES | IC50 [nM]
CCCCOc1cc(-c2c(-c3ccc(F)cc3)nn3ccccc23)ccn1 [Example 91, 3-(2-Butoxypyridin-4-yl)-2-(4-fluorophenyl)pyrazolo[1,5-a]pyridine] | 11000
CCCCOc1cccc2c(-c3ccnc(NC4CCCC4)n3)c(-c3ccc(OC)cc3)nn12 [Example 228, 4-[7-Butoxy-2-(4-methoxyphenyl)pyrazolo[1,5-a]pyridin-3-yl]-N-cyclopentyl-2-pyrimidinamine] | 280

Tested on: not given
Assay: not given
Conditions: not given

melting point [°C] | SMILES
155 to 156 | OCc1ccc2c(-c3ccnc(NC4CCCC4)n3)c(-c3ccc(F)cc3)nn2c1 [Example 33, [3-[2-(Cyclopentylamino)-4-pyrimidinyl]-2-(4-fluorophenyl)pyrazolo-[1,5-a]pyridin-6-yl]methanol]
155 to 156 | CCOC(=O)c1ccc2c(-c3ccnc(NC4CCCC4)n3)c(-c3ccc(F)cc3)nn2c1C [Example 81, Ethyl 3-[2-(cyclopentylamino)-4-pyrimidinyl]-2-(4-fluorophenyl)-7-methylpyrazolo[1,5-a]pyridine-6-carboxylate]
